These results are taken from patent US11427539B2, “Beta-hydroxy heterocyclic amines and their use in the treatment of hyperglycaemia” (ATROGI AB, priority 2017, dated 2022).

Counter-ions that a name gives are not always drawn. Like-named read-outs stand apart in the source and are kept apart here.

The test system of assay [1] is Differentiated L6-myotubes. Description: Glucose uptake in differentiated L6-myotubes (3H-2-deoxy-glucose). In kind it is cell-based. The settings on record: for Emax: read-out: Biological example 1: glucose uptake, activity compared to that of isoproterenol; for Biological example 1: glucose uptake, activity compared to that of isoproterenol: Hydrochloride.
For assay [2], the system named is Intracellular cAMP levels in differentiated cells (L6-myotubes). Description: Measurement of intracellular cAMP levels (alpha screen cAMP kit). In kind it is cell-based. The settings on record: for Emax: 0.25 h, read-out: Biological example 2: intracellular cAMP levels, activity compared to that of isoproterenol. As to the method:
L6-myoblasts were grown in Dulbecco's Modified Eagle's Medium (DMEM) containing 4.5 g/l glucose supplemented with 10% fetal bovine serum, 2 mM L-Glutamine, 50 U/ml penicillin, 50 μg/ml streptomycin and 10 mM HEPES. Cells were plated at 1×10^5 cells per ml in 24-well plates. After reaching 90% confluence the cells were grown in medium containing 2% FBS for 7 days where upon cells differentiated into myotubes. Differentiated cells were serum-starved over night and stimulated with agonist, final concentration 1×10-^5, for 15 min in stimulation buffer (HBSS supplemented with 1% BSA, 5 mM HEPES and 1 mM IBMX, pH 7.4) The medium was then aspirated and to end the reaction 100 μL of 95% EtOH was added to each well of a 24-well plate and cells were kept in −20° C. over night. The EtOH was let to evaporate and 500 μL of lysis buffer (1% BSA, 5 mM HEPES and 0.3% Tween-20, pH 7.4) was added to each well before put in −80° C. for 30 min and then kept in −20° C. Intracellular cAMP levels were detected using an alpha screen cAMP kit (6760635D from Perkin Elmer). The activity for each compound is compared to that of isoproterenol.
In general terms: Cyclic AMP is a second messenger, typically raised through Gs and lowered through Gi signalling.

Setting [3] is: agonist final concentration 1×10^−5, L6-myotubes, 3H-2-deoxy-glucose uptake, relative to isoproterenol.
Where [4] appears, read: agonist final concentration 1×10-^5, 15 min, differentiated cells, relative to isoproterenol.

`C[C@H]1CC[C@@H]([C@H](O)c2cccc(O)c2)N1` (racemic) [Example 9, Racemic mixture of 3-((R)-Hydroxy((2S,5S)-5-methylpyrrolidin-2-yl)methyl)-phenol Acetate and 3-((S)-Hydroxy((2R,5R)-5-methylpyrrolidin-2-yl)methyl)phenol Acetate]: the Emax in assay [1] (setting [3]) was 50 to 75%; in assay [2] (setting [4]), less than 25%.
Taken in the same sequence, the figures for `C[C@@H]1CC[C@H]([C@H](O)c2cccc(O)c2)N1` (racemic) [Example 10, Racemic Mixture of 3-((R)-Hydroxy((2R,5R)-5-methylpyrrolidin-2-yl)methyl)-phenol Acetate and 3-((S)-Hydroxy((2S,5S)-5-methylpyrrolidin-2-yl)methyl)phenol Acetate] were greater than 75% and less than 25%.
Consider `C[C@H]1CC[C@@H]([C@H](O)c2ccccc2)N1` (racemic) [Example 11, Racemic mixture of (R)-((2S,5S)-5-Methylpyrrolidin-2-yl)(phenyl)methanol and (S)-((2R,5R)-5-Methylpyrrolidin-2-yl)(phenyl)methanol], for which the values for the Emax in assay [1] and in assay [2] were 25 to 50% and less than 25%, respectively.
Taken in the same sequence, the figures for `C[C@@H]1CC[C@H]([C@H](O)c2ccccc2)N1` (racemic) [Example 12, Racemic mixture of (R)-((2R,5R)-5-Methylpyrrolidin-2-yl)(phenyl)methanol and (S)-((2S,5S)-5-Methylpyrrolidin-2-yl)(phenyl)methanol] were 50 to 75% and less than 25%.
For `CCCC1CCC[C@H](C(O)c2cccc(O)c2)N1` (stereo in doubt) [Example 19, 3-((R)-Hydroxy((2R,6R)-6-propylpiperidin-2-yl)methyl)phenol Hydrochloride], the figures for the Emax in assay [1] (setting [3]) and in assay [2] (setting [4]) were 25 to 50% and less than 25%, respectively.
In the case of `CCC[C@@H]1CCCC([C@@H](O)c2cccc(O)c2)N1` (stereo in doubt) [Example 33, 3-((S)-hydroxy((2S,6R)-6-propylpiperidin-2-yl)methyl)phenol Hydrochloride], the “Biological example 1: glucose uptake, activity compared to that of isoproterenol” value in assay [1] (setting [3]) was “++ (between 75 and 50%)”. Further, the “Biological example 2: intracellular cAMP levels, activity compared to that of isoproterenol” value in assay [2] (setting [4]) is on record as “− (less than 25%)”.
On to `CCC[C@H]1CC[C@H](C(O)c2cccc(O)c2)N1` (stereo in doubt) [Example 46, 3-((R)-hydroxy((2R,5S)-5-propylpyrrolidin-2-yl)methyl)phenol], for which the Emax is 50 to 75% in assay [1] (setting [3]) and less than 25% in assay [2] (setting [4]).
Taken in the same sequence, the figures for `CCC[C@@H]1CCC[C@H]([C@H](O)c2cccc(F)c2)N1` [Example 1, (R)-(3-Fluorophenyl)((2R,6R)-6-propylpiperidin-2-yl)methanol] were 25 to 50% and less than 25%.
Taken in the same sequence, the figures for `CCC[C@H]1CCC[C@H]([C@H](O)c2cccc(F)c2)N1` [Example 2, (R)-(3-Fluorophenyl)((2R,6S)-6-propylpiperidin-2-yl)methanol] were greater than 75% and less than 25%.
Taken in the same sequence, the figures for `CCC[C@H]1CCC[C@H]([C@H](O)c2cc(F)cc(F)c2)N1` [Example 3, (R)-(3,5-Difluorophenyl)((2R,6S)-6-propylpiperidin-2-yl)methanol] were greater than 75% and less than 25%.
For the compound `CCC[C@H]1CCC[C@H]([C@H](O)c2ccc(F)c(F)c2)N1` [Example 4, (R)-(3,4-Difluorophenyl)((2R,6S)-6-propylpiperidin-2-yl)methanol], the Emax is 50 to 75% in assay [1] (setting [3]) and less than 25% in assay [2] (setting [4]).
Taken in the same sequence, the figures for `CCC[C@H]1CCC[C@H]([C@H](O)c2cccc(O)c2)N1` [Example 5, 3-((R)-Hydroxy((2R,6S)-6-propylpiperidin-2-yl)methyl)phenol Acetate] were greater than 75% and less than 25%.
Taken in the same sequence, the figures for `CCC[C@@H]1CCC[C@H]([C@H](O)c2cccc(O)c2)N1` [Example 6, 3-((R)-Hydroxy((2R,6R)-6-propylpiperidin-2-yl)methyl)phenol] were 50 to 75% and less than 25%.
`CCC[C@@H]1CC[C@H]([C@H](O)c2cccc(F)c2)N1` [Example 7, (R)-(3-Fluorophenyl)((2R,5R)-5-propylpyrrolidin-2-yl)methanol Acetate]: the Emax in assay [1] (setting [3]) is greater than 75%; in assay [2] (setting [4]) it was less than 25%.
Take `CCC[C@@H]1CC[C@H]([C@H](O)c2cccc(O)c2)N1` [Example 8, 3-((R)-Hydroxy((2R,5R)-5-propylpyrrolidin-2-yl)methyl)phenol]: the Emax in assay [1] (setting [3]) was greater than 75%; in assay [2] (setting [4]) it was 25 to 50%.
Taken in the same sequence, the figures for `CCC[C@@H]1CCC[C@H]([C@@H](O)c2cccc(F)c2)N1` [Example 13, (S)-(3-Fluorophenyl)((2R,6R)-6-propylpiperidin-2-yl)methanol] were 50 to 75% and less than 25%.
As for `CCC[C@@H]1CCC[C@H]([C@@H](O)c2cccc(O)c2)N1` [Example 14, 3-((S)-Hydroxy((2R,6R)-6-propylpiperidin-2-yl)methyl)phenol Hydrochloride], the “Biological example 1: glucose uptake, activity compared to that of isoproterenol” value in assay [1] (setting [3]) is “+ (between 50 and 25%)”. Further, the Emax in assay [2] (setting [4]) is less than 25%.
Turning to `CCC[C@@H]1CCC[C@H]([C@H](O)c2ccc(F)cc2)N1` [Example 15, (R)-(4-Fluorophenyl)((2R,6R)-6-propylpiperidin-2-yl)methanol], the figures for the Emax in assay [1] (setting [3]) and in assay [2] (setting [4]) were 50 to 75% and less than 25%, respectively.
With `CCC[C@@H]1CCC[C@H]([C@H](O)c2ccccc2F)N1` [Example 16, (R)-(2-Fluorophenyl)((2R,6R)-6-propylpiperidin-2-yl)methanol], the Emax in assay [1] (setting [3]) was 50 to 75%; in assay [2] (setting [4]), less than 25%.
Taken in the same sequence, the figures for `CCC[C@@H]1CCC[C@H]([C@@H](O)c2ccccc2F)N1` [Example 17, (S)-(2-Fluorophenyl)((2R,6R)-6-propylpiperidin-2-yl)methanol hydrochloride] were 25 to 50% and less than 25%.
Taken in the same sequence, the figures for `CCC[C@H]1CCC[C@H]([C@@H](O)c2cccc(F)c2)N1` [Example 18, (S)-(3-Fluorophenyl)((2R,6S)-6-propylpiperidin-2-yl)methanol] were 50 to 75% and less than 25%.
Taken in the same sequence, the figures for `CCC[C@H]1CCC[C@H]([C@H](O)c2cccc(Cl)c2)N1` [Example 20, (R)-(3-Chlorophenyl)((2R,6S)-6-propylpiperidin-2-yl)methanol hydrochloride] were 25 to 50% and less than 25%.
As for `CCC[C@H]1CCC[C@H]([C@@H](O)c2cccc(Cl)c2)N1` [Example 21, (S)-(3-Chlorophenyl)((2R,6S)-6-propylpiperidin-2-yl)methanol hydrochloride], the Emax in assay [1] (setting [3]) was 25 to 50%; in assay [2] (setting [4]), less than 25%.
Taken in the same sequence, the figures for `CCC[C@H]1CCC[C@H]([C@H](O)c2ccccc2F)N1` [Example 22, (R)-(2-Fluorophenyl)((2R,6S)-6-propylpiperidin-2-yl)methanol] were 50 to 75% and less than 25%.
Taken in the same sequence, the figures for `CCC[C@H]1CCC[C@H]([C@H](O)c2ccccc2Cl)N1` [Example 24, (R)-(2-Chlorophenyl)((2R,6S)-6-propylpiperidin-2-yl)methanol] were 25 to 50% and less than 25%.
`CCC[C@H]1CCC[C@H]([C@H](O)c2ccc(F)cc2)N1` [Example 25, (R)-(4-Fluorophenyl)((2R,6S)-6-propylpipehdin-2-yl)methanol]: the Emax in assay [1] (setting [3]) was 50 to 75%; in assay [2] (setting [4]), less than 25%.
Taken in the same sequence, the figures for `CCC[C@H]1CCC[C@H]([C@@H](O)c2cc(F)cc(F)c2)N1` [Example 27, (S)-(3,5-Difluorophenyl)((2R,6S)-6-propylpiperidin-2-yl)methanol acetate] were 25 to 50% and less than 25%.
Taken in the same sequence, the figures for `CCC[C@H]1CCC[C@H]([C@@H](O)c2ccc(F)c(F)c2)N1` [Example 28, (S)-(3,4-Difluorophenyl)((2R,6S)-6-propylpiperidin-2-yl)methanol] were 25 to 50% and less than 25%.
Consider `CCC[C@@H]1CCC[C@@H]([C@H](O)c2cccc(F)c2)N1` [Example 29, (R)-(3-Fluorophenyl)((2S,6R)-6-propylpiperidin-2-yl)methanol hydrochloride], for which the Emax in assay [1] (setting [3]) was 25 to 50%; in assay [2] (setting [4]), less than 25%.
Regarding `CCC[C@@H]1CCC[C@@H]([C@H](O)c2cccc(Cl)c2)N1` [Example 30, (R)-(3-Chlorophenyl)((2S,6R)-6-propylpiperidin-2-yl)methanol hydrochloride], the Emax was greater than 75% in assay [1] (setting [3]) and less than 25% in assay [2] (setting [4]).
Consider `CCC[C@@H]1CCC[C@@H]([C@H](O)c2cccc(O)c2)N1` [Example 32, 3-((R)-hydroxy((2S,6R)-6-propylpiperidin-2-yl)methyl)phenol Hydrochloride], for which the Emax in assay [1] (setting [3]) is greater than 75%; in assay [2] (setting [4]) it was less than 25%.
